# From ChEMBL document CHEMBL1139951, “Synthesis and local anesthetic activity of fluoro-substituted imipramine and its analogues” (Bioorg Med Chem Lett, 2007)
# How the values were obtained:
# [1] = Dissociation constant, pKa by potentiometric titration method; type: physicochemical
# [2] = system: Sciatic nerve; test: Anesthetic activity in toad sciatic nerves assessed as sciatic nerve block activity relative to Lidocaine; type: functional, Bufo bufo; parameters: unit not given here
# [3] = system: Sciatic nerve; test: Anesthetic activity in toad sciatic nerves assessed as latent period of sciatic nerve block; type: functional, Bufo bufo
# [4] = system: Sciatic nerve; test: Anesthetic activity in toad sciatic nerves assessed as sciatic nerve block activity; type: functional, Bufo bufo
pKa [1],Structure (SMILES),Activity [2],Latent period of sciatic nerve block [3] [min],Activity [4] [%]
7.7,CN(C)CCCN1c2cc(F)ccc2CCc2ccc(F)cc21,,,
7.7,CCN(CC)CCCN1c2cc(F)ccc2CCc2ccc(F)cc21,,,
7.6,Fc1ccc2c(c1)N(CCCN1CCCCC1)c1cc(F)ccc1CC2,,,
7.6,Fc1ccc2c(c1)N(CCCN1CCOCC1)c1cc(F)ccc1CC2,,,
7.9,Fc1ccc2c(c1)N(CCCN1CCCC1)c1cc(F)ccc1CC2,,,
,Cl.Fc1ccc2c(c1)N(CCCN1CCOCC1)c1cc(F)ccc1CC2,65.5,37.3,0.029
,CN(C)CCCN1c2cc(F)ccc2CCc2ccc(F)cc21.Cl,20.2,30.7,0.094
,CCN(CC)CC(=O)Nc1c(C)cccc1C.Cl,100,37.2,0.019
,CCN(CC)CCCN1c2cc(F)ccc2CCc2ccc(F)cc21.Cl,105.5,38.2,0.018
,Cl.Fc1ccc2c(c1)N(CCCN1CCCC1)c1cc(F)ccc1CC2,27.5,40.6,0.069
,Cl.Fc1ccc2c(c1)N(CCCN1CCCCC1)c1cc(F)ccc1CC2,48.7,39.8,0.039
